Assay results as given in patent EP1438307B1, “DERIVATIVES OF 4-(THIO- OR SELENOXANTHENE-9-YLIDENE)-PIPERIDINE OR ACRIDINE AND ITS USE AS A SELECTIVE 5-HT2B RECEPTOR ANTAGONIST” (Biofrontera Pharmaceuticals GmbH, priority 2001, dated 2003).

Key:
[1] = molecular target: T1, human H1 receptor (Homo sapiens, UniProt P35367); experiment: Cloned human H1 receptor binding assay, [3H]-mepyramine; conditions: COS-7 cells transfected with human H1 receptor, read-out: Receptor Affinity: pK Values H1 receptor (converted)
T1 construct: expressed in transfected cells; host or cells: COS-7 (transient)
Method: COS-7 cells were transiently transfected with an expression plasmid pCineohH1, pCineohH2, pCineohH3 and pCineohH4 encoding the human Histamine H1, H2. H3 or H4 receptor, respectively. Transfected cells were harvested after 48 h, homogenized in ice-cold 50 mM Na2/potassium phosphate buffer (pH 7.4) and used for radioligand binding studies. Cell homogenates (40 - 50 µg of protein) were incubated for 30 min at 25°C in 50 mM Na2/potassium phosphate buffer (pH 7.4) in 400 µl with the various concentrations of either [^3H]-mepyramine, [^3H]-thiotidine, [^3H]-R-α-Methylhistamine, and [^3H]-pyramilamine for cells expressing recombinant human H1, H2. H3 and H4 receptors, respectively. The nonspecific binding was defined in the presence of 1 µM mianserin. In displacement studies, cell homogenated were incubated either with 1 nM [^3H]-mepyramine, 15 nM [^3H]-thiotidine, 0.5 nM [^3H]-R-α-Methylhistamine, or 15 nM [^3H]-pyramilamine and increasing concentrations of competing ligands. The incubations were stopped by rapid dilution with 3 ml of ice-cold 50 mM Na2/potassium phosphate buffer (pH 7.4). The bound radioactivity was seperated by filatration through Whatman GF/C filters that had been treated with 0.3 % polyethyleneimine. Filters were washed twice in 3 ml of buffer and radioactivity retained on the filters was measured by liquid scinitllation counting. The concentration of 1-methyl-4-(3-ethoxy-9H-thioxanthene-9-ylidene)-piperidine producing 50% inhibition of binding (IC50) was determined using iterative curve fitting techniques.

[2] = molecular target: T2, 5-HT2A receptor (Homo sapiens, UniProt P28223); experiment: 5-HT2A receptor binding, [3H]ketanserin competition (counter screen); conditions: read-out: Receptor Affinity: pK Values 5-HT2A receptor (converted)
T2 construct: expressed in transfected cells; host or cells: HEK293
Method: 5-HT2A receptors were labelled with [^3H]ketanserin in human cortex, in HEK293 cells expressing a cloned human 5-HT2A receptor and in HEK293 cells expressing the rat 5-HT2A receptor. For competition binding studies the ligand concentration was approximately 0.1 nM. For saturation binding studies concentrations of radioligand ranged from 0.01 nM to 2.0 nM. Assays were conducted in 0.5 ml of assay buffer (50 mM Tris-HCl, 4 mM calcium chloride, 0.1 % by weight ascorbic acid) (pH 7.4 at 4°C). Non-specifc binding was defined with […] unlabelled ketanserin. After a 60 min incubation at 32°C, membranes were harvested onto filters treated with 0.1 % by weight of polyethylenimine and the bound radioactivity was determined. Competition radioligand binding data was analyzed using a four parameter logistic equation and iterative curve-fitting techniques to obtain estimates of the IC50 and Hill slope. Kd values, determined from saturation binding studies were then used to calculate inhibition dissociation constants (Ki).

[3] = molecular target: T3, 5-HT2C receptor (Homo sapiens, UniProt P28335); experiment: 5-HT2C receptor binding, [3H]mesulergine competition (counter screen); conditions: read-out: Receptor Affinity: pK Values 5NT2C receptor (converted)
T3 construct: expressed in transfected cells; host or cells: Cos-7
T3 sequence (P28335 33-458): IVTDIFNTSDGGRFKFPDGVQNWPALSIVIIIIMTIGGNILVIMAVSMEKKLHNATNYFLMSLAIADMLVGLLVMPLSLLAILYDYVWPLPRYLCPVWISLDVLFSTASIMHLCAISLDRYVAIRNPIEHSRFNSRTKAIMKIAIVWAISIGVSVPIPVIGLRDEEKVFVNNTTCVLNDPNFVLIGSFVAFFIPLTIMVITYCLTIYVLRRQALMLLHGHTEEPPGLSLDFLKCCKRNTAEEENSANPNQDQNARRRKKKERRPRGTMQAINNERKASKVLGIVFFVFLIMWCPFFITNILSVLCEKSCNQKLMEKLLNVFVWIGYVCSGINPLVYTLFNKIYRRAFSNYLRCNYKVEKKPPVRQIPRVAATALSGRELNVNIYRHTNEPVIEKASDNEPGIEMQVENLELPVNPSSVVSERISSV
Method: 5-HT2C receptors were labelled in choroid plexus, Cos-7 cells expressing the human 5-HT2C receptor and in NIH-3T3 expressing the […]. Assays were conducted as described for the 5-HT2A receptor except that the radioligand was [^3H]mesulergine. The radioligand concentration for competition studies was approximately 0.2 nM while for saturation binding studies the concentration ranged from 0.1 to 18 nM. Non-specific binding was defined with 10 µM unlabelled mesulergine. Competition radioligand binding data was analyzed using a four parameter logistic equation and iterative curve-fitting techniques to obtain estimates of the IC50 and Hill slope. Kd values, determined from saturation binding studies were then used to calculate inhibition dissociation constants (Ki).

[4] = molecular target: T4, human 5-HT2B receptor (Homo sapiens, UniProt P41595); experiment: Cloned human 5-HT2B receptor binding assay, [3H]-5HT; conditions: HEK 293 cells transfected with human 5-HT2B receptor, read-out: Receptor Affinity: pK Values 5HT2B receptor (converted)
T4 construct: expressed in transfected cells; host or cells: HEK 293 (transient)
Method: The following describes an in vitro binding assay utilizing cloned 5-HT2B receptors radiolabelled with [^3H]-5HT. HEK 293 cells transiently transfected with an expression plasmid pXMD1-hu2B encoding the human 5-HT2B receptor (see Schmuck et al., FEBS Lett., 1994, 342, 85-90) were used as described previously (Schmuck et al., Eur. J. Pharmacol., 1996, 8, 959-967). Two days after transfection cells were harvested, pelleted at 500g for 5 min at 4°C, gently resuspended in ice-cold buffer1 (50 mM TRIS pH 7.7, 4 mM CaCl2) and homogenized using a Polytron PT 1200 tissue homogenizer (position 6 for 30 s). Cells were pelleted at 50,000g, 4°C for 10 min, washed with buffer1 and pelleted again. The final pellet was resuspended in incubation buffer (50 mM TRIS pH 7.7, 4 mM CaCl2, 10 µM pargyline and 0.1 % by weight ascorbic acid). The binding assay consisted of 300 µl of membrane suspension (protein concentration = 0.3 to 0.5 mg/ml), 150 µl of competing drug and 50 µl of [^3H]5-HT at a final concentration of 4 to 5 nM. The mixture was incubated at 37°C for 30 min and the assay terminated by rapid filtration and two washing steps with 5 ml of cold 20 mM Tris-HCl pH = 7.5, and 154 mM NaCl over Whatman GFB filters. Filters were counted by liquid scintillation. Non-specific binding was determined in the presence of an excess of 5-HT (100 µM). Bound radioligand represented less than 1 % of free radioligand. In competition experiments, specific binding represented about 60 % of total binding. Results expressed as pKi values are shown in Table 1 Human 5-HT2B receptors were labelled in HEK293 cells as described above, except that the radioligand was [^3H]-5HT and that the assay buffer contained pargyline in a concentration of […] and 0.1 % by weight of ascorbic acid. For competition binding studies the radioligand concentration was approximately 0.4 nM while for saturation binding studies the concentration of [^3H]-5HT ranged from 0.05 to 8 nM. Non-specific binding was defined with […]. Incubations were for 120 min at 4°C. Competition radioligand binding data was analyzed using a four parameter logistic equation and iterative curve-fitting techniques to obtain estimates of the IC50 and Hill slope. Kd values, determined from saturation binding studies were then used to calculate inhibition dissociation constants (Ki).

T1 sequence (P35367 whole entry): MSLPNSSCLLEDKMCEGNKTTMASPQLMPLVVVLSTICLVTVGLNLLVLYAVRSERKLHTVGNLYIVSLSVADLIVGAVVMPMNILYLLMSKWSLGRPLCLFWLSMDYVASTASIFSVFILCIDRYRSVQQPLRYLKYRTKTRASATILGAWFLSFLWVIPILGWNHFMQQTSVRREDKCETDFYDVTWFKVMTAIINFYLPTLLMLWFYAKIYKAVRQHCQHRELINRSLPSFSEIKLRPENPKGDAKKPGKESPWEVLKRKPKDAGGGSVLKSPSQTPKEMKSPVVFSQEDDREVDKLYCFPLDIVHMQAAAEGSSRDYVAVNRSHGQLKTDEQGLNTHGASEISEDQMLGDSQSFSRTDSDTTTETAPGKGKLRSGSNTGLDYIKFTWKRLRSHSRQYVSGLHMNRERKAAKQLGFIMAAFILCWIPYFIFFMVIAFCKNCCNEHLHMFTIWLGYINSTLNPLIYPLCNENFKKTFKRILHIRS
T4 sequence (P41595 whole entry): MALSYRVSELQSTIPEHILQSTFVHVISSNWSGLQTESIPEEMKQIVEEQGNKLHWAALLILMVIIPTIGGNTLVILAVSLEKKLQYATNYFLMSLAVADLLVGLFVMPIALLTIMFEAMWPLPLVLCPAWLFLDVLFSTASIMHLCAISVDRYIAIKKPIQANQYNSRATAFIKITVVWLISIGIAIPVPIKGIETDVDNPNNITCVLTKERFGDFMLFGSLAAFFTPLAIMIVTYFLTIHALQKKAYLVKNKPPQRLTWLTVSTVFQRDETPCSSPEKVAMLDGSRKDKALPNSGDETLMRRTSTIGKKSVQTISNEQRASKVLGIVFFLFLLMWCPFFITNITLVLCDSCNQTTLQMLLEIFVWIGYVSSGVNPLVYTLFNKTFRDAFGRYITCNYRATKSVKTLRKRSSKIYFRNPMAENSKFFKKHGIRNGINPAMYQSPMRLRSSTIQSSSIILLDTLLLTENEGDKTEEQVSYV
T2 sequence (P28223 whole entry): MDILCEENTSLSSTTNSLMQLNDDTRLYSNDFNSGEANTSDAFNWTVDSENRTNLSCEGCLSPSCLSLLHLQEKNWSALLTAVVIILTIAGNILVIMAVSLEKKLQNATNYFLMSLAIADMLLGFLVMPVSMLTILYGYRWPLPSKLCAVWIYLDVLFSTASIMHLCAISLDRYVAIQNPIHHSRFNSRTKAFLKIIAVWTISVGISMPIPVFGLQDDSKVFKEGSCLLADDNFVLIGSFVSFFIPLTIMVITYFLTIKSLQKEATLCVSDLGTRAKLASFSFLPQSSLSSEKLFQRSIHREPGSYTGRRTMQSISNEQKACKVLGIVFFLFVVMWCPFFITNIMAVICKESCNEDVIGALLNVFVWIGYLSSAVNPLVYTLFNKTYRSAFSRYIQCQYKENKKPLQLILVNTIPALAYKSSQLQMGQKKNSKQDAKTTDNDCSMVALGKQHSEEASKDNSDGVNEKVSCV

Row | SMILES | Ki [1] | Ki [2] | Ki [3] | Ki [4]
1 | CCOc1ccc2c(c1)Nc1ccccc1C2=C1CCN(C)CC1 [3-Ethoxy-9-(1-methyl-piperidine-4-ylidene)-9,10-dihydro-acridine] | 29.5 nM | 1.17 nM | 37.2 nM | 0.741 nM
2 | CCOc1ccc2c(c1)Sc1cccc(O)c1C2=C1CCN(C)CC1 [4-(6-Ethoxy-1-hydroxy-thioxanthen-9-yliden)-1-methyl-piperidine] | 36.3 nM | 1.51 nM | 13.8 nM | 0.0115 nM
3 | CCOc1ccc2c(c1)Sc1cccc(OC)c1C2=C1CCN(C)CC1 [4-(6-Ethoxy-1-methoxy-thioxanthen-9-yliden)-1-methyl-piperidine] | 3.72 nM | 1.02 nM | 17 nM | 0.0447 nM
4 | CC(C)c1ccc2c(c1)Sc1cccc(O)c1C2=C1CCN(C)CC1 [4-(6-Isopropyl-1-hydroxy-thioxanthen-9-yliden)-1-methyl-piperidine] | 35.5 nM | 0.776 nM | 30.2 nM | 0.12 nM
5 | COc1cccc2c1C(=C1CCN(C)CC1)c1ccc(C(C)C)cc1S2 [4-(6-Isopropyl-1-methoxy-thioxanthen-9-yliden)-1-methyl-piperidine] | 10.5 nM | 0.741 nM | 16.2 nM | 0.17 nM
6 | COc1ccc2c(c1)Sc1cccc(OC)c1C2=C1CCN(C)CC1 [4-(6-Methoxy-1-methoxy-thioxanthen-9-yliden)-1-methyl-piperidine] | 0.129 nM | 0.0427 nM | 1.55 nM | 0.00871 nM
